Measured values from ChEMBL document CHEMBL4000244, “Probing A-form DNA: A fluorescent aminosugar probe and dual recognition by anthraquinone-neomycin conjugates” (Bioorg Med Chem, 2017).

Legend:
[1] = Binding affinity to 5'-GCCCCCGG-3' DNA hairpin assessed as change in fluorescence intensity at 1 uM after 45 mins by fluorescence quenching analysis relative to control
[2] = Binding affinity to 5'-CGCCCCCC-3' DNA hairpin assessed as change in fluorescence intensity at 1 uM after 45 mins by fluorescence quenching analysis relative to control
[3] = Binding affinity to 5'-GGGGGGGG-3' DNA hairpin assessed as change in fluorescence intensity at 1 uM after 45 mins by fluorescence quenching analysis relative to control
[4] = Binding affinity to 5'-GGGGCCGG-3' DNA hairpin assessed as change in fluorescence intensity at 1 uM after 45 mins by fluorescence quenching analysis relative to control
[5] = Binding affinity to 5'-CGGCCCCC-3' DNA hairpin assessed as change in fluorescence intensity at 1 uM after 45 mins by fluorescence quenching analysis relative to control
[6] = Binding affinity to 5'-GGGGGCCG-3' DNA hairpin assessed as change in fluorescence intensity at 1 uM after 45 mins by fluorescence quenching analysis relative to control
[7] = Binding affinity to 5'-CGGGGGGC-3' DNA hairpin assessed as change in fluorescence intensity at 1 uM after 45 mins by fluorescence quenching analysis relative to control
[8] = Binding affinity to 5'-CCCCCGGG-3' DNA hairpin assessed as change in fluorescence intensity at 1 uM after 45 mins by fluorescence quenching analysis relative to control
[9] = Binding affinity to 5'-CGGGCCCC-3' DNA hairpin assessed as change in fluorescence intensity at 1 uM after 45 mins by fluorescence quenching analysis relative to control
[10] = Binding affinity to 5'-GCCCGGCC-3' DNA hairpin assessed as change in fluorescence intensity at 1 uM after 45 mins by fluorescence quenching analysis relative to control
[11] = Binding affinity to 5'-GCGGGGGC-3' DNA hairpin assessed as change in fluorescence intensity at 1 uM after 45 mins by fluorescence quenching analysis relative to control
[12] = Binding affinity to 5'-GCGGGGGG-3' DNA hairpin assessed as change in fluorescence intensity at 1 uM after 45 mins by fluorescence quenching analysis relative to control
[13] = Binding affinity to 5'-GCCCGGGG-3' DNA hairpin assessed as change in fluorescence intensity at 1 uM after 45 mins by fluorescence quenching analysis relative to control
[14] = Binding affinity to 5'-CCCGGGCG-3' DNA hairpin assessed as change in fluorescence intensity at 1 uM after 45 mins by fluorescence quenching analysis relative to control
[15] = Binding affinity to 5'-CGGGGGCG-3' DNA hairpin assessed as change in fluorescence intensity at 1 uM after 45 mins by fluorescence quenching analysis relative to control
[16] = Binding affinity to 5'-GGCGGCCC-3' DNA hairpin assessed as change in fluorescence intensity at 1 uM after 45 mins by fluorescence quenching analysis relative to control
[17] = Binding affinity to 5'-GGGGCCGC-3' DNA hairpin assessed as change in fluorescence intensity at 1 uM after 45 mins by fluorescence quenching analysis relative to control
[18] = Binding affinity to 5'-GCCGGGGG-3' DNA hairpin assessed as change in fluorescence intensity at 1 uM after 45 mins by fluorescence quenching analysis relative to control
[19] = Binding affinity to 5'-CGGCGCCG-3' DNA hairpin assessed as change in fluorescence intensity at 1 uM after 45 mins by fluorescence quenching analysis relative to control
[20] = Binding affinity to 5'-GCGGCGGG-3' DNA hairpin assessed as change in fluorescence intensity at 1 uM after 45 mins by fluorescence quenching analysis relative to control
[21] = Binding affinity to 5'-CCGCCGGG-3' DNA hairpin assessed as change in fluorescence intensity at 1 uM after 45 mins by fluorescence quenching analysis relative to control
[22] = Binding affinity to 5'-CGCGGCCC-3' DNA hairpin assessed as change in fluorescence intensity at 1 uM after 45 mins by fluorescence quenching analysis relative to control
[23] = Binding affinity to 5'-GCGCCCCC-3' DNA hairpin assessed as change in fluorescence intensity at 1 uM after 45 mins by fluorescence quenching analysis relative to control
[24] = Binding affinity to 5'-GCCGCCCG-3' DNA hairpin assessed as change in fluorescence intensity at 1 uM after 45 mins by fluorescence quenching analysis relative to control
[25] = Binding affinity to 5'-GCGGCGCG-3' DNA hairpin assessed as change in fluorescence intensity at 1 uM after 45 mins by fluorescence quenching analysis relative to control
[26] = Binding affinity to 5'-GGCCGGCG-3' DNA hairpin assessed as change in fluorescence intensity at 1 uM after 45 mins by fluorescence quenching analysis relative to control
[27] = Binding affinity to 5'-CGCCGGCC-3' DNA hairpin assessed as change in fluorescence intensity at 1 uM after 45 mins by fluorescence quenching analysis relative to control
[28] = Binding affinity to 5'-CCGGCCGG-3' DNA hairpin assessed as change in fluorescence intensity at 1 uM after 45 mins by fluorescence quenching analysis relative to control
[29] = Binding affinity to 5'-CCGGCGGG-3' DNA hairpin assessed as change in fluorescence intensity at 1 uM after 45 mins by fluorescence quenching analysis relative to control
[30] = Binding affinity to 5'-CGCCGGGC-3' DNA hairpin assessed as change in fluorescence intensity at 1 uM after 45 mins by fluorescence quenching analysis relative to control
[31] = Binding affinity to 5'-GGCCGCGG-3' DNA hairpin assessed as change in fluorescence intensity at 1 uM after 45 mins by fluorescence quenching analysis relative to control
[32] = Binding affinity to 5'-CCGCGGCG-3' DNA hairpin assessed as change in fluorescence intensity at 1 uM after 45 mins by fluorescence quenching analysis relative to control
[33] = Binding affinity to 5'-GCGCGGCC-3' DNA hairpin assessed as change in fluorescence intensity at 1 uM after 45 mins by fluorescence quenching analysis relative to control
[34] = Binding affinity to 5'-CGGCGGGG-3' DNA hairpin assessed as change in fluorescence intensity at 1 uM after 45 mins by fluorescence quenching analysis relative to control
[35] = Binding affinity to 5'-GCCGCGGG-3' DNA hairpin assessed as change in fluorescence intensity at 1 uM after 45 mins by fluorescence quenching analysis relative to control
[36] = Binding affinity to 5'-CCGCGCGC-3' DNA hairpin assessed as change in fluorescence intensity at 1 uM after 45 mins by fluorescence quenching analysis relative to control

Work on NCC1O[C@H](O[C@H]2[C@@H](O)[C@H](O[C@@H]3[C@@H](O)[C@H](N)C[C@H](N)[C@H]3O[C@H]3O[C@H](CN)[C@@H](O)[C@H](O)[C@H]3N)O[C@@H]2CSCCNC(=O)CCSCC(=O)Nc2ccc(-c3c4ccc(=O)cc-4oc4cc(O)ccc34)c(C(=O)O)c2)[C@H](N)[C@@H](O)[C@@H]1O (stereo partly specified) yielded an Activity [1] of 16%, an Activity [2] of 25.1% and an Activity [3] of 27.2%. It also gave an Activity [4] of 28.3%, an Activity [5] of 29.6% and an Activity [6] of 29.9%. For the same molecule, the Activity [7] was 32.2%, the Activity [8] was 35.1% and the Activity [9] was 35.1%. It also gave an Activity [10] of 36.2%, an Activity [11] of 36.9% and an Activity [12] of 38.1%. For the same molecule, the Activity [13] was 38.8%, the Activity [14] was 39% and the Activity [15] was 41.1%. For the same molecule, the Activity [16] was 41.2%, the Activity [17] was 41.3% and the Activity [18] was 42.5%. The Activity [19] was 42.9%, the Activity [20] was 43.5% and the Activity [21] was 43.7%. For the same molecule, the Activity [22] was 44.6%, the Activity [23] was 45.7% and the Activity [24] was 45.8%. It also gave an Activity [25] of 45.8%, an Activity [26] of 47.6% and an Activity [27] of 48.6%. The Activity [28] was 49.1%, the Activity [29] was 49.1% and the Activity [30] was 49.5%. It also gave an Activity [31] of 49.8%, an Activity [32] of 50.1% and an Activity [33] of 50.4%. The Activity [34] was 50.8%, the Activity [35] was 52.7% and the Activity [36] was 57.5%.
